1 compound from patent US6844336B2, “4-fluoroalkyl-2h-benzopyrans with anti-estogenic activity” (Schering AG, priority 2000, dated 2005) can be followed below.

This assay has as its system density of the trabecular bone in the proximal tibia of ovariectomized rats. Kind of assay: Bone studies in ovariectomized rats (bone density of proximal tibia by pQCT). Also noted: species or system rat. The following applies: three-month-old ovariectomized female rats, once daily for 28 days, 0.1 mg/kg/animal/day p.o., pQCT ex vivo. As for the experimental part: Three-month-old female rats are ovariectomized and treated once daily with the test compound immediately after the operation for 28 days. The administration is carried out subcutaneously in arachis oil/ethanol or it is carried out perorally. The animals are sacrificed on the day after the last administration, and tibiae as well as uteri are removed. The uteri are weighed, fixed and worked up for histological studies. The determination of the bone density is carried out ex vivo on prepared long bones using pQCT (quantitative computer tomography). The measurements are performed at a distance of 4-6 mm from the ball of the joint of the proximal tibia.
By the ovariectomy, the density of the trabecular bone in the measured area is reduced by about 400 mg of Ca^2+/cm^3 to about 300 mg of Ca^2+/cm^3. By the treatment with a compound of general formula I according to this invention (dosage of 0.1 mg/kg/animal/day p.o.), the degradation of the bone density in the proximal tibia is prevented or inhibited.

Consider `Oc1ccc(C2=C(C(F)(F)F)c3ccc(O)cc3OC2c2ccc(OCCN3CCCCC3)cc2)cc1` (single isomer, unassigned; (+)) [Example 1, (+)-7-Hydroxy-3-(4-hydroxyphenyl)-2-[4-(2-piperidin-1-ylethoxy)-penyl]-4(trifluoromethyl)-2H-1-benzopyran], for which the “bone protection in comparison to the control that was subjected to a sham operation” value was 73%.
